Data published in the supplement of paper PMC10307832.

Tests used:
Experiment in all cases: relative viability (nuclei count vs DMSO), 5 days (fraction); higher = more cells survive
DM3189 = compound: C1CN(CCN1)C2=CC=C(C=C2)C3=CN4C(=C(C=N4)C5=CC=NC6=CC=CC=C56)N=C3 [DM3189]
Summary of the method: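 A plate was accepted only when its control CV was below 25% and the cells had doubled at least once. Viability is defined from nuclear counts as treated wells divided by vehicle wells, with the median taken across plates. That median covers lung cancer cell lines grown in 1536-well plates, dosed by pinning at five √10-spaced library-drug concentrations, and counted in MetaXpress from 4× Hoechst images after 5 days.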

DM3189 + Bortezomib = compound: C1CN(CCN1)C2=CC=C(C=C2)C3=CN4C(=C(C=N4)C5=CC=NC6=CC=CC=C56)N=C3 [DM3189] + CC(C)C[C@H](NC(=O)[C@H](Cc1ccccc1)NC(=O)c1cnccn1)B(O)O [Bortezomib] (partner 0.002 µM)
Summary of the method: (§1)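 Nuclei were stained with Hoechst during a one-step fixation (final 0.05% Triton X-100, 1% formaldehyde, 1 ug/ml Hoechst) carried out 5 days after dosing, then counted on 4× images. The cells, lung cancer lines in 1536-well plates, had been dosed by pin tool the day after seeding with one drug alone or a fixed anchor-drug dose plus five library-drug doses (not always all listed) in √10 steps. Relative viability is the nuclei count in treated wells divided by that in vehicle wells, and each value is the median of duplicate plates.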

DM3189 + Navitoclax = compound: C1CN(CCN1)C2=CC=C(C=C2)C3=CN4C(=C(C=N4)C5=CC=NC6=CC=CC=C56)N=C3 [DM3189] + CC1(C)CCC(c2ccc(Cl)cc2)=C(CN2CCN(c3ccc(C(=O)NS(=O)(=O)c4ccc(N[C@H](CCN5CCOCC5)CSc5ccccc5)c(S(=O)(=O)C(F)(F)F)c4)cc3)CC2)C1 [Navitoclax] (partner 0.5 µM)
Summary of the method: as §1

DM3189 + Foretinib = compound: C1CN(CCN1)C2=CC=C(C=C2)C3=CN4C(=C(C=N4)C5=CC=NC6=CC=CC=C56)N=C3 [DM3189] + COc1cc2c(Oc3ccc(NC(=O)C4(C(=O)Nc5ccc(F)cc5)CC4)cc3F)ccnc2cc1OCCCN1CCOCC1 [Foretinib] (partner 0.25 µM)
Summary of the method: as §1

DM3189 + Lapatinib = compound: C1CN(CCN1)C2=CC=C(C=C2)C3=CN4C(=C(C=N4)C5=CC=NC6=CC=CC=C56)N=C3 [DM3189] + CS(=O)(=O)CCNCc1ccc(-c2ccc3ncnc(Nc4ccc(OCc5cccc(F)c5)c(Cl)c4)c3c2)o1 [Lapatinib] (partner 2 µM)
Summary of the method: as §1

DM3189 + Pictilisib = compound: C1CN(CCN1)C2=CC=C(C=C2)C3=CN4C(=C(C=N4)C5=CC=NC6=CC=CC=C56)N=C3 [DM3189] + CS(=O)(=O)N1CCN(Cc2cc3nc(-c4cccc5[nH]ncc45)nc(N4CCOCC4)c3s2)CC1 [Pictilisib] (partner 1 µM)
Summary of the method: as §1

DM3189 + Crizotinib = compound: C1CN(CCN1)C2=CC=C(C=C2)C3=CN4C(=C(C=N4)C5=CC=NC6=CC=CC=C56)N=C3 [DM3189] + C[C@@H](Oc1cc(-c2cnn(C3CCNCC3)c2)cnc1N)c1c(Cl)ccc(F)c1Cl [Crizotinib] (partner 1 µM)
Summary of the method: as §1

DM3189 + Linsitinib = compound: C1CN(CCN1)C2=CC=C(C=C2)C3=CN4C(=C(C=N4)C5=CC=NC6=CC=CC=C56)N=C3 [DM3189] + C[C@]1(O)C[C@@H](c2nc(-c3ccc4ccc(-c5ccccc5)nc4c3)c3c(N)nccn32)C1 [Linsitinib] (partner 1 µM)
Summary of the method: as §1

DM3189 + Alpelisib = compound: C1CN(CCN1)C2=CC=C(C=C2)C3=CN4C(=C(C=N4)C5=CC=NC6=CC=CC=C56)N=C3 [DM3189] + Cc1nc(NC(=O)N2CCC[C@H]2C(N)=O)sc1-c1ccnc(C(C)(C)C(F)(F)F)c1 [Alpelisib] (partner 2 µM)
Summary of the method: as §1

DM3189 + Olaparib = compound: C1CN(CCN1)C2=CC=C(C=C2)C3=CN4C(=C(C=N4)C5=CC=NC6=CC=CC=C56)N=C3 [DM3189] + O=C(c1cc(Cc2n[nH]c(=O)c3ccccc23)ccc1F)N1CCN(C(=O)C2CC2)CC1 [Olaparib] (partner 8 µM)
Summary of the method: as §1

Work on Calu-6 yielded a relative viability (DM3189; 0.08 µM) of 1.03, a relative viability (DM3189; 0.253 µM) of 0.966 and a relative viability (DM3189; 0.8 µM) of 0.812. For the same cell line, the relative viability (DM3189; 2.53 µM) was 1.03, the relative viability (DM3189 + Bortezomib; first compound 0.08 µM) was 0.997 and the relative viability (DM3189 + Bortezomib; first compound 0.253 µM) was 0.941. The relative viability (DM3189 + Bortezomib; first compound 0.8 µM) was 0.816, the relative viability (DM3189 + Bortezomib; first compound 2.53 µM) was 0.784 and the relative viability (DM3189 + Navitoclax; first compound 0.08 µM) was 0.819. The relative viability (DM3189 + Navitoclax; first compound 0.253 µM) was 0.678, the relative viability (DM3189 + Navitoclax; first compound 0.8 µM) was 0.705 and the relative viability (DM3189 + Navitoclax; first compound 2.53 µM) was 0.486. It also gave a relative viability (DM3189 + Foretinib; first compound 0.08 µM) of 0.901, a relative viability (DM3189 + Foretinib; first compound 0.253 µM) of 0.768 and a relative viability (DM3189 + Foretinib; first compound 0.8 µM) of 0.715. It also gave a relative viability (DM3189 + Foretinib; first compound 2.53 µM) of 0.765, a relative viability (DM3189 + Lapatinib; first compound 0.08 µM) of 0.998 and a relative viability (DM3189 + Lapatinib; first compound 0.253 µM) of 0.905. It also gave a relative viability (DM3189 + Lapatinib; first compound 0.8 µM) of 0.822, a relative viability (DM3189 + Lapatinib; first compound 2.53 µM) of 0.885 and a relative viability (DM3189 + Pictilisib; first compound 0.08 µM) of 0.876. For the same cell line, the relative viability (DM3189 + Pictilisib; first compound 0.253 µM) was 0.658, the relative viability (DM3189 + Pictilisib; first compound 0.8 µM) was 0.657 and the relative viability (DM3189 + Pictilisib; first compound 2.53 µM) was 0.692. For the same cell line, the relative viability (DM3189 + Crizotinib; first compound 0.08 µM) was 0.895, the relative viability (DM3189 + Crizotinib; first compound 0.253 µM) was 0.788 and the relative viability (DM3189 + Crizotinib; first compound 0.8 µM) was 0.732. For the same cell line, the relative viability (DM3189 + Crizotinib; first compound 2.53 µM) was 0.544, the relative viability (DM3189 + Linsitinib; first compound 0.08 µM) was 0.975 and the relative viability (DM3189 + Linsitinib; first compound 0.253 µM) was 0.958. It also gave a relative viability (DM3189 + Linsitinib; first compound 0.8 µM) of 0.703, a relative viability (DM3189 + Linsitinib; first compound 2.53 µM) of 0.763 and a relative viability (DM3189 + Alpelisib; first compound 0.08 µM) of 1.06. For the same cell line, the relative viability (DM3189 + Alpelisib; first compound 0.253 µM) was 0.855, the relative viability (DM3189 + Alpelisib; first compound 0.8 µM) was 0.702 and the relative viability (DM3189 + Alpelisib; first compound 2.53 µM) was 0.77. For the same cell line, the relative viability (DM3189 + Olaparib; first compound 0.08 µM) was 0.625, the relative viability (DM3189 + Olaparib; first compound 0.253 µM) was 0.529 and the relative viability (DM3189 + Olaparib; first compound 0.8 µM) was 0.45. The relative viability (DM3189 + Olaparib; first compound 2.53 µM) was 0.608.
EBC-1 showed a relative viability (DM3189; 0.08 µM) of 0.974, a relative viability (DM3189; 0.253 µM) of 0.989 and a relative viability (DM3189; 0.8 µM) of 0.963. The relative viability (DM3189; 2.53 µM) was 1.07, the relative viability (DM3189 + Bortezomib; first compound 0.08 µM) was 0.63 and the relative viability (DM3189 + Bortezomib; first compound 0.253 µM) was 0.611. The relative viability (DM3189 + Bortezomib; first compound 0.8 µM) was 0.483, the relative viability (DM3189 + Bortezomib; first compound 2.53 µM) was 0.551 and the relative viability (DM3189 + Navitoclax; first compound 0.08 µM) was 0.48. The relative viability (DM3189 + Navitoclax; first compound 0.253 µM) was 0.356, the relative viability (DM3189 + Navitoclax; first compound 0.8 µM) was 0.478 and the relative viability (DM3189 + Navitoclax; first compound 2.53 µM) was 0.391. The relative viability (DM3189 + Foretinib; first compound 0.08 µM) was 0.11, the relative viability (DM3189 + Foretinib; first compound 0.253 µM) was 0.106 and the relative viability (DM3189 + Foretinib; first compound 0.8 µM) was 0.0886. The relative viability (DM3189 + Foretinib; first compound 2.53 µM) was 0.0977, the relative viability (DM3189 + Lapatinib; first compound 0.08 µM) was 0.228 and the relative viability (DM3189 + Lapatinib; first compound 0.253 µM) was 0.214. The relative viability (DM3189 + Lapatinib; first compound 0.8 µM) was 0.214, the relative viability (DM3189 + Lapatinib; first compound 2.53 µM) was 0.2 and the relative viability (DM3189 + Pictilisib; first compound 0.08 µM) was 0.419. For the same cell line, the relative viability (DM3189 + Pictilisib; first compound 0.253 µM) was 0.435, the relative viability (DM3189 + Pictilisib; first compound 0.8 µM) was 0.344 and the relative viability (DM3189 + Pictilisib; first compound 2.53 µM) was 0.285. It also gave a relative viability (DM3189 + Crizotinib; first compound 0.08 µM) of 0.196, a relative viability (DM3189 + Crizotinib; first compound 0.253 µM) of 0.183 and a relative viability (DM3189 + Crizotinib; first compound 0.8 µM) of 0.164. It also gave a relative viability (DM3189 + Crizotinib; first compound 2.53 µM) of 0.179, a relative viability (DM3189 + Linsitinib; first compound 0.08 µM) of 0.993 and a relative viability (DM3189 + Linsitinib; first compound 0.253 µM) of 0.965. It also gave a relative viability (DM3189 + Linsitinib; first compound 0.8 µM) of 0.869, a relative viability (DM3189 + Linsitinib; first compound 2.53 µM) of 1.06 and a relative viability (DM3189 + Alpelisib; first compound 0.08 µM) of 0.864. The relative viability (DM3189 + Alpelisib; first compound 0.253 µM) was 0.759, the relative viability (DM3189 + Alpelisib; first compound 0.8 µM) was 0.817 and the relative viability (DM3189 + Alpelisib; first compound 2.53 µM) was 0.985. It also gave a relative viability (DM3189 + Olaparib; first compound 0.08 µM) of 0.858, a relative viability (DM3189 + Olaparib; first compound 0.253 µM) of 0.778 and a relative viability (DM3189 + Olaparib; first compound 0.8 µM) of 0.71. For the same cell line, the relative viability (DM3189 + Olaparib; first compound 2.53 µM) was 0.673.
With NCI-H1299 the relative viability (DM3189; 0.08 µM) was 0.967, the relative viability (DM3189; 0.253 µM) was 0.987 and the relative viability (DM3189; 0.8 µM) was 0.976. The relative viability (DM3189; 2.53 µM) was 1.04, the relative viability (DM3189 + Bortezomib; first compound 0.08 µM) was 1.06 and the relative viability (DM3189 + Bortezomib; first compound 0.253 µM) was 1.01. It also gave a relative viability (DM3189 + Bortezomib; first compound 0.8 µM) of 1.01, a relative viability (DM3189 + Bortezomib; first compound 2.53 µM) of 1.01 and a relative viability (DM3189 + Navitoclax; first compound 0.08 µM) of 1.03. It also gave a relative viability (DM3189 + Navitoclax; first compound 0.253 µM) of 0.985, a relative viability (DM3189 + Navitoclax; first compound 0.8 µM) of 1.02 and a relative viability (DM3189 + Navitoclax; first compound 2.53 µM) of 1.03. It also gave a relative viability (DM3189 + Foretinib; first compound 0.08 µM) of 1.09, a relative viability (DM3189 + Foretinib; first compound 0.253 µM) of 0.996 and a relative viability (DM3189 + Foretinib; first compound 0.8 µM) of 1.06. The relative viability (DM3189 + Foretinib; first compound 2.53 µM) was 1.08, the relative viability (DM3189 + Lapatinib; first compound 0.08 µM) was 1.01 and the relative viability (DM3189 + Lapatinib; first compound 0.253 µM) was 0.926. For the same cell line, the relative viability (DM3189 + Lapatinib; first compound 0.8 µM) was 0.899, the relative viability (DM3189 + Lapatinib; first compound 2.53 µM) was 0.94 and the relative viability (DM3189 + Pictilisib; first compound 0.08 µM) was 0.911. For the same cell line, the relative viability (DM3189 + Pictilisib; first compound 0.253 µM) was 0.776, the relative viability (DM3189 + Pictilisib; first compound 0.8 µM) was 0.59 and the relative viability (DM3189 + Pictilisib; first compound 2.53 µM) was 0.495. The relative viability (DM3189 + Crizotinib; first compound 0.08 µM) was 0.99, the relative viability (DM3189 + Crizotinib; first compound 0.253 µM) was 0.914 and the relative viability (DM3189 + Crizotinib; first compound 0.8 µM) was 0.924. The relative viability (DM3189 + Crizotinib; first compound 2.53 µM) was 0.983, the relative viability (DM3189 + Linsitinib; first compound 0.08 µM) was 0.998 and the relative viability (DM3189 + Linsitinib; first compound 0.253 µM) was 1.01. The relative viability (DM3189 + Linsitinib; first compound 0.8 µM) was 0.958, the relative viability (DM3189 + Linsitinib; first compound 2.53 µM) was 1.06 and the relative viability (DM3189 + Alpelisib; first compound 0.08 µM) was 1.09. For the same cell line, the relative viability (DM3189 + Alpelisib; first compound 0.253 µM) was 1.07, the relative viability (DM3189 + Alpelisib; first compound 0.8 µM) was 0.968 and the relative viability (DM3189 + Alpelisib; first compound 2.53 µM) was 1.15. It also gave a relative viability (DM3189 + Olaparib; first compound 0.08 µM) of 0.963, a relative viability (DM3189 + Olaparib; first compound 0.253 µM) of 0.922 and a relative viability (DM3189 + Olaparib; first compound 0.8 µM) of 0.753. The relative viability (DM3189 + Olaparib; first compound 2.53 µM) was 1.05.
